For one cell line, relative viability results are on record in the supplement of paper PMC10307832.

Holding throughout (experiment): relative viability (nuclei count vs DMSO), 5 days (fraction); higher = more cells survive
Compound in test [1]: C1CNCCC1C2=CC(=NN2)C3=CC=NC=C3 + Nc1nc2[nH]cc(CCc3ccc(C(=O)N[C@@H](CCC(=O)O)C(=O)O)cc3)c2c(=O)[nH]1 [Pemetrexed] (partner 0.2 µM)
An outline of the steps: (§1)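 Lung cancer cell lines were pin-tool dosed in 1536-well plates on the day after seeding, with either a lone drug or a fixed anchor-drug dose plus five library-drug doses (not always all listed) in √10 steps. Nuclei were counted on 4× images after 5 days. Relative viability is the ratio of treated-well to vehicle-well nuclei counts, with each value a median of duplicate plates.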

Compound in test [2]: O[C@H]1CC[C@H](Nc2ncc3nc(Nc4c(F)cc(F)cc4F)n([C@H]4CCOC4)c3n2)CC1 [Tanzisertib] + CC(=O)c1c(C)c2cnc(Nc3ccc(N4CCNCC4)cn3)nc2n(C2CCCC2)c1=O [Palbociclib] (partner 0.5 µM)
Put shortly: as §1

Compound in test [3]: O[C@H]1CC[C@H](Nc2ncc3nc(Nc4c(F)cc(F)cc4F)n([C@H]4CCOC4)c3n2)CC1 [Tanzisertib] + Cc1nc(Nc2ncc(C(=O)Nc3c(C)cccc3Cl)s2)cc(N2CCN(CCO)CC2)n1 [Dasatinib] (partner 0.075 µM)
An outline of the steps:
as §1

Compound in test [4]: O[C@H]1CC[C@H](Nc2ncc3nc(Nc4c(F)cc(F)cc4F)n([C@H]4CCOC4)c3n2)CC1 [Tanzisertib] + Nc1nc2[nH]cc(CCc3ccc(C(=O)N[C@@H](CCC(=O)O)C(=O)O)cc3)c2c(=O)[nH]1 [Pemetrexed] (partner 0.2 µM)
Put shortly:
as §1

With UMC-11, the relative viability turned out to be 0.653 in test [1] (first compound 0.08 µM); 0.9 in test [1] (first compound 0.8 µM); 0.874 in test [1] (first compound 2.53 µM); 0.811 in test [1] (first compound 8 µM); 0.346 in test [2] (first compound 0.08 µM); 0.285 in test [2] (first compound 0.253 µM). Further, the relative viability was found to be 0.319 in test [2] (first compound 0.8 µM); 0.325 in test [2] (first compound 2.53 µM); 0.355 in test [2] (first compound 8 µM); 0.487 in test [3] (first compound 0.08 µM); 0.456 in test [3] (first compound 0.253 µM); 0.437 in test [3] (first compound 0.8 µM). Besides, the relative viability was 0.449 in test [3] (first compound 2.53 µM); 0.48 in test [3] (first compound 8 µM); 0.801 in test [4] (first compound 0.08 µM); 0.793 in test [4] (first compound 0.253 µM); 0.784 in test [4] (first compound 0.8 µM); 0.816 in test [4] (first compound 2.53 µM). For the same cell line, the relative viability in test [4] (first compound 8 µM) was determined as 0.833.
